Laboratory results reported in publication PMC12102759 (Protein Science : A Publication of the Protein Society, 2025).
Residues, ends and D or L forms follow the SMILES beside them. *: point of attachment. FITC = O=C1OC2(c3ccc(O)cc3Oc3cc(O)ccc32)c2ccc(NC(=S)*)cc21

target: TLN1 PTB (Homo sapiens, UniProt Q9Y490); assay: biochemical; type: binding
Sequence (Q9Y490 309-401): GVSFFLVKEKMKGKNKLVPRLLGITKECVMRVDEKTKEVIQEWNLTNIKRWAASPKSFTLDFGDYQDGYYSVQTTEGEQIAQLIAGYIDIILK

| Compound | Kd [µM] | IC50 [µM] | fold higher affinity than wild‐type TPTE2_92‐107 [fold] |
| --- | --- | --- | --- |
| Ac-LADLIFTDSALYIPLE-NH2 [TPTE2_K101A] | 15 |  |  |
| Ac-LADLIFTDSKLYLPLE-NH2 [TPTE2_I104L] | 4.5 |  |  |
| Ac-LADLIFTDSKLYIPLE-NH2 [TPTE2 wt] | 4.5 | 15 |  |
| Ac-LADLIWTDSKLYIPLE-NH2 [TPTE2_92‐107 F97W] | 0.1 |  | 44 |

target: T1, NSP3 ADRP (Severe acute respiratory syndrome coronavirus 2, UniProt P0DTC1); assay: biochemical; type: binding, SARS‐CoV‐2

| Compound | Kd [µM] |
| --- | --- |
| CC[C@H](C)[C@H](NC(=O)CNC(=O)[C@H](CC(C)C)NC(=O)[C@H](CC(C)C)NC(=O)[C@H](CCC(=O)O)NC(=O)[C@H](CO)NC(=O)[C@H](CC(C)C)NC(=O)[C@@H]1CCCN1C(=O)[C@H](Cc1c[nH]cn1)NC(=O)[C@H](CC(C)C)NC(=O)[C@H](Cc1ccc(O)cc1)NC(=O)[C@@H](NC(=O)[C@H](CO)NC(=O)CNC(=S)Nc1ccc2c(c1)C(=O)OC21c2ccc(O)cc2Oc2cc(O)ccc21)[C@@H](C)O)C(=O)N1CCC[C@H]1C(=O)N[C@@H](CC(C)C)C(=O)O ({FITC}-GSTYLHPLSELLGIPL-OH) | 50.8 |

target: T1, NSP3 ADRP; assay: biochemical; type: binding, SARS‐CoV‐2; remark: another data set of the same source

| Compound | IC50 [µM] | Kd [µM] |
| --- | --- | --- |
| Ac-STYLHPLSELLGIPFD-NH2 [MBOAT1 L31F] | 285 | 93 |
| Ac-STYIHPLSELLGIPLD-NH2 [MBOAT1 L20I] | 429 | 152 |
| Ac-STYLHPLSELLGMPLD-NH2 [MBOAT1 I29M] | 268 | 86.5 |
| Ac-STYLHPLSELLGIPLD-NH2 [MBOAT1 wt] | 175 |  |
| Ac-STALHPLSELLGIPLDY-NH2 [MBOAT1 Y19A] | 452 | 161 |
| Ac-STYLHPLSELLTIPLD-NH2 [MBOAT1 G28T] | 311 | 104 |
| Ac-STYLHPLSELFGIPLD-NH2 [MBOAT1 L27F] | 255 | 82 |

target: T2, NSP3 SUD-M (Severe acute respiratory syndrome coronavirus 2, UniProt P0DTC1); assay: biochemical; type: binding, SARS‐CoV‐2

| Compound | IC50 [µM] | Kd [µM] | fold increase in affinity compared to wild‐type PRDM14 peptide [fold] |
| --- | --- | --- | --- |
| Ac-QFTEEDLHFVLEGVTPY-NH2 [PRDM14 Y207E] | 243 | 40 |  |
| Ac-QFTEEDLMFVLYGVTPY-NH2 [PRDM14 H203M] | 124 | 13 |  |
| Ac-QFTEENLHFVLYGVTPY-NH2 [PRDM14 D201N] | 1430 | 313 |  |
| Ac-QFTEEALHFVLYGVTPY-NH2 [PRDM14 D201A] | 1050 | 226 |  |
| Ac-QFTEEDLHFVLYGVTPY-NH2 [PRDM14 wt] | 400 | 74 |  |
| Ac-QFTEEELHFVLYGVTPY-NH2 [PRDM14 D201E] | 90 | 5.4 | 14 |

target: T3, NSP3 UBl1 (Severe acute respiratory syndrome coronavirus 2, UniProt P0DTC1); assay: biochemical; type: binding, SARS‐CoV‐2

| Compound | Kd [µM] |
| --- | --- |
| CC(C)C[C@H](NC(=O)[C@H](C)NC(=O)[C@H](CC(C)C)NC(=O)[C@H](Cc1ccc(O)cc1)NC(=O)[C@H](CC(C)C)NC(=O)[C@H](CCC(N)=O)NC(=O)[C@H](CC(=O)O)NC(=O)[C@H](CC(C)C)NC(=O)[C@H](CC(C)C)NC(=O)[C@H](C)NC(=O)CNC(=O)[C@H](CCC(=O)O)NC(=O)[C@H](CC(=O)O)NC(=O)[C@H](CO)NC(=S)Nc1ccc2c(c1)C(=O)OC21c2ccc(O)cc2Oc2cc(O)ccc21)C(=O)N[C@@H](CCCNC(=N)N)C(=O)N[C@@H](CC(N)=O)C(=O)O ({FITC}-SDEGALLDQLYLALRN-OH) | 67 |

target: NSP9 (Severe acute respiratory syndrome coronavirus 2, UniProt P0DTC1); assay: biochemical; type: binding, SARS‐CoV‐2

| Compound | Kd [µM] |
| --- | --- |
| CC[C@H](C)[C@H](NC(=O)CNC(=O)[C@H](CCC(=O)O)NC(=O)[C@H](C)NC(=S)Nc1ccc2c(c1)C(=O)OC21c2ccc(O)cc2Oc2cc(O)ccc21)C(=O)N[C@@H](CC(=O)O)C(=O)N[C@H](C(=O)NCC(=O)N[C@@H](CCC(=O)O)C(=O)N[C@@H](CCSC)C(=O)N1CCC[C@H]1C(=O)N[C@@H](CO)C(=O)N[C@@H](Cc1ccc(O)cc1)C(=O)N[C@@H](CC(=O)O)C(=O)N[C@@H](CC(C)C)C(=O)N[C@H](C(=O)N[C@@H](CC(C)C)C(=O)O)C(C)C)[C@@H](C)CC | 15.5 |

target: T2, NSP3 SUD-M; assay: biochemical; type: binding, SARS‐CoV‐2; remark: another data set of the same source

| Compound | Kd [µM] |
| --- | --- |
| CC(C)C[C@H](NC(=O)[C@H](CC(=O)O)NC(=O)[C@H](CCC(=O)O)NC(=O)[C@H](CCC(=O)O)NC(=O)[C@@H](NC(=O)[C@H](Cc1ccccc1)NC(=S)Nc1ccc2c(c1)C(=O)OC21c2ccc(O)cc2Oc2cc(O)ccc21)[C@@H](C)O)C(=O)N[C@@H](Cc1c[nH]cn1)C(=O)N[C@@H](Cc1ccccc1)C(=O)N[C@H](C(=O)N[C@@H](CC(C)C)C(=O)N[C@@H](Cc1ccc(O)cc1)C(=O)NCC(=O)N[C@H](C(=O)N[C@H](C(=O)N1CCC[C@H]1C(=O)N[C@@H](CO)C(=O)O)[C@@H](C)O)C(C)C)C(C)C ({FITC}-FTEEDLHFVLYGVTPS-OH) | 19 |

target: T3, NSP3 UBl1; assay: biochemical; type: binding, SARS‐CoV‐2; remark: another data set of the same source

| Compound | IC50 [µM] | Kd [µM] |
| --- | --- | --- |
| Ac-PSDEQALLQQLYLALR-NH2 [NCOA2 G1077Q D1081Q] | 66.2 | 5.1 |
| Ac-PSDEQALLDQLYLALR-NH2 [NCOA2 G1077Q] | 98 | 19 |
| Ac-PSDEGALLQQLYLALR-NH2 [NCOA2 D1081Q] | 108 | 24 |
| Ac-PSDEGALLDQLYLALR-NH2 [NCOA2 wt] | 139 | 39 |
